Reference: patent publication US11179383B2 (Gilead Sciences, Inc., priority 2018, dated 2021)

Target: T1, α4β7 integrin (Homo sapiens, UniProt P13612+P26010)
T1 construct: monitoring the capture of α4β7 integrin expressing cells on a recombinant MadCAM-1 extracellular domain-coated plate; endogenous in cells; host or cells: RPMI8866 cells
T1 sequence (P13612 34-1032): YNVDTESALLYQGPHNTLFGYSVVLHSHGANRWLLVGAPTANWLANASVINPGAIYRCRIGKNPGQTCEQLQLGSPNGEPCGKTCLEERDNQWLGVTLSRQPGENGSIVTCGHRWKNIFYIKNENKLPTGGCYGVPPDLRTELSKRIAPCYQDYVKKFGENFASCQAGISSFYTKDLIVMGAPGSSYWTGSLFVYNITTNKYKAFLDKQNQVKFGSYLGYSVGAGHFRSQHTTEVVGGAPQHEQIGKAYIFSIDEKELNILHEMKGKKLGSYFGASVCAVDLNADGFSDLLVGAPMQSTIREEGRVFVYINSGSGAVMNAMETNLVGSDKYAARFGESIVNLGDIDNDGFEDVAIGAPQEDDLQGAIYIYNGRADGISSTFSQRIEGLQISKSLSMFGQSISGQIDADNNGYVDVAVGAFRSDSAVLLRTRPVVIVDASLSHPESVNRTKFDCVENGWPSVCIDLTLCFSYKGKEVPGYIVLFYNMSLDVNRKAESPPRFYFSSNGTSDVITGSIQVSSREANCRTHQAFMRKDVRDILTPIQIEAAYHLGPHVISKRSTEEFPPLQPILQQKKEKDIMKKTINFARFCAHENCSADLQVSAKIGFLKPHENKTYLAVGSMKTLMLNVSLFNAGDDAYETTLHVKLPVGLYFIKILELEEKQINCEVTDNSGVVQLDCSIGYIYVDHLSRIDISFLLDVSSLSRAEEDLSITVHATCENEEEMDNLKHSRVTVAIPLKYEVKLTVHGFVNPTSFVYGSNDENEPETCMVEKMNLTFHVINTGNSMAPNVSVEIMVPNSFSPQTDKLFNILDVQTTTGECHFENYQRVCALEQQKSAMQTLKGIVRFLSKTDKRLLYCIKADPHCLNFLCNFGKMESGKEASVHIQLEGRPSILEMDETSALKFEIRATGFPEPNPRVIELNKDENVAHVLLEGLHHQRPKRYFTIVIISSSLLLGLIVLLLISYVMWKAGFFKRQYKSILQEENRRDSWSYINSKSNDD
T1 sequence (P26010 20-798): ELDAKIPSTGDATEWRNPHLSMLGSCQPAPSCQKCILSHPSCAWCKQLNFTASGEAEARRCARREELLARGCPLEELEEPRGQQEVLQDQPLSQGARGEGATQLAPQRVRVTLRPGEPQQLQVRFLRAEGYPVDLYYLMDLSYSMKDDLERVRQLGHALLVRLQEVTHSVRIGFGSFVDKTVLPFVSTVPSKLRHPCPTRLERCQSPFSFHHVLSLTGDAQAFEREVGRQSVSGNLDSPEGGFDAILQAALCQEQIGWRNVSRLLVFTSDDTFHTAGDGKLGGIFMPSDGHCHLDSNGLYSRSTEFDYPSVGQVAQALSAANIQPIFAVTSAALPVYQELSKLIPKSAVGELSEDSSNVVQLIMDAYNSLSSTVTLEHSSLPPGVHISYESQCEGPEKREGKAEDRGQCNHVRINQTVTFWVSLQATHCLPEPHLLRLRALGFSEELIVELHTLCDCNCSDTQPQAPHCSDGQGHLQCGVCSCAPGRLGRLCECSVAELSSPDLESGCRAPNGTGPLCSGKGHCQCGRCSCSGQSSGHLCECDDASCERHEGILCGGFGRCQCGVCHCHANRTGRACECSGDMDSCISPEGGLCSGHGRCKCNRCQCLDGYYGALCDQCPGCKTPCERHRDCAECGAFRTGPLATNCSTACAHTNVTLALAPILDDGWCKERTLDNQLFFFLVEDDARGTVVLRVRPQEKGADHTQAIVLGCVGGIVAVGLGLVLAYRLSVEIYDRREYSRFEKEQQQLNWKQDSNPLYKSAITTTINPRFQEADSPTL
Experiment: α4β7 Integrin Cell Capture Assay
Format: cell-based
Details: capture of α4β7 integrin expressing RPMI8866 cells on recombinant MadCAM-1 extracellular domain-coated plate; DMEM+0.5% FBS+0.5 mM MnCl2; read-out: EC50 α4β7
Method: α4β7 Integrin Cell Capture Assay
The potency of inhibitors in preventing α4β7 integrin interaction with MadCAM-1 was measured by monitoring the capture of α4β7 integrin expressing cells on a recombinant MadCAM-1 extracellular domain-coated plate.
384-Well plates (Corning 3702) were coated with MadCAM-1 extracellular domain by dispensing 20 μL of MAdCAM-1 at 1.0 μg/mL per well and incubating overnight at 4° C. The plates were then washed with PBS and blocked with 3% BSA for 2 hours before being washed again.
RPMI8866 cells were spun down and re-suspended in assay medium (DMEM+0.5% FBS+0.5 mM MnCl2) at a density of 0.5×10^6 cells/mL. The cells were then dispensed (60 μL/well) to a 384-well plate (Greiner 781280) that was previously spotted with 60 nL of test compound per well. The plates were incubated at 37° C. for 1 hour. 50 μL of cells were transferred to the blocked, MadCAM-1-coated plates and incubated for 30 minutes at 37° C. 10 μL of 12% glutaraldehyde containing Hoechst 33342 (0.06 mg/mL) was added to the cells (2% glutaraldehyde and 0.01 mg/mL final concentrations). The plates were incubated for 90 minutes at room temperature. The plates were then washed 3 times with 70 μL of PBS per well and imaged on a Cellomics ArrayScan instrument. The cells that were bound to the plate were counted and plotted against the compound concentration to determine the EC50 of the test compounds.

Row | SMILES | EC50
1 | COc1cc(F)cc(Cl)c1-c1ccc(C[C@H](NC(=O)c2c(Cl)cccc2Cl)C(=O)O)c2ncccc12 [Example 36, (2S)-3-(5-(2-chloro-4-fluoro-6-methoxyphenyl)quinolin-8-yl)-2-(2,6-dichlorobenzamido)propanoic acid] | 115 nM
2 | O=C(N[C@@H](Cc1ccc(-c2nccc(Cl)c2C(F)(F)F)c2cccnc12)C(=O)O)c1c(Cl)cccc1Cl [Example 57, (S)-3-(5-(4-chloro-3-(trifluoromethyl)pyridin-2-yl)quinolin-8-yl)-2-(2,6-dichlorobenzamido)propanoic acid] | 23.6 nM
3 | CCOCc1cc(OC)c(-c2ccc(C[C@H](NC(=O)c3c(F)cc(NS(=O)(=O)c4ccc(-c5ccnc(F)c5)cc4)cc3F)C(=O)O)c3ncccc23)c(OC)c1 [Example 102, (S)-2-(2,6-difluoro-4-((4-(2-fluoropyridin-4-yl)phenyl)sulfonamido)benzamido)-3-(5-(4-(ethoxymethyl)-2,6-dimethoxyphenyl)quinolin-8-yl)propanoic acid] | 1 nM
4 | CCOCc1cc(OC)c(-c2ccc(C[C@H](NC(=O)c3c(F)cccc3F)C(=O)O)c3nccc(Cl)c23)c(OC)c1 [Example 93, (S)-3-(4-chloro-5-(4-(ethoxymethyl)-2,6-dimethoxyphenyl)quinolin-8-yl)-2-(2,6-difluorobenzamido)propanoic acid] | 26.8 nM
5 | COc1cc(F)c(F)cc1-c1ccc(C[C@H](NC(=O)c2c(F)cccc2F)C(=O)O)c2nccc(Cl)c12 [Example 92, (S)-3-(4-chloro-5-(4,5-difluoro-2-methoxyphenyl)quinolin-8-yl)-2-(2,6-difluorobenzamido)propanoic acid] | 89.4 nM
6 | O=C(N[C@@H](Cc1ccc(-c2c(Cl)cc(F)cc2Cl)c2cccnc12)C(=O)O)c1c(F)cccc1F [Example 1, (S)-3-(5-(2,6-dichloro-4-fluorophenyl)quinolin-8-yl)-2-(2,6-difluorobenzamido)propanoic acid] | 210 nM
7 | Cn1c(=O)c(-c2ccc(C[C@H](NC(=O)c3c(F)cccc3F)C(=O)O)c3ncccc23)cc2ccccc21 [Example 84, (S)-2-(2,6-difluorobenzamido)-3-(1-methyl-2-oxo-1,2-dihydro-[3,5′-biquinolin]-8′-yl)propanoic acid] | 10.9 nM
8 | COc1c(F)cccc1-c1ccc(C[C@H](NC(=O)c2c(Cl)cccc2Cl)C(=O)O)c2ncccc12 [Example 45, (S)-2-(2,6-dichlorobenzamido)-3-(5-(3-fluoro-2-methoxyphenyl)quinolin-8-yl)propanoic acid] | 243 nM
9 | Cc1cc(C(F)(F)F)c(-c2ccc(C[C@H](NC(=O)c3c(F)cc(N4CCOC[C@@H]4C(F)(F)F)cc3F)C(=O)O)c3ccccc23)c(=O)n1C (single isomer, unassigned) [Example 129] | 0.1 nM
10 | CCOCc1cc(OC)c(-c2ccc(C[C@H](NC(=O)c3c(F)cccc3F)C(=O)O)c3ncccc23)c(OC)c1 [Example 78, (S)-2-(2,6-difluorobenzamido)-3-(5-(4-(ethoxymethyl)-2,6-dimethoxyphenyl)quinolin-8-yl)propanoic acid] | 12.4 nM
11 | Cc1c(-c2ccc(C[C@H](NC(=O)c3c(Cl)cccc3Cl)C(=O)O)c3ncccc23)ncc2ccccc12 [Example 40, (S)-2-(2,6-dichlorobenzamido)-3-(5-(4-methylisoquinolin-3-yl)quinolin-8-yl)propanoic acid] | 32.7 nM
12 | Cc1cc(C(F)(F)F)c(-c2ccc(C[C@H](NC(=O)c3c(Cl)cccc3Cl)C(=O)O)c3ncccc23)c(=O)n1C (single isomer, unassigned) [Example 61] | 15.1 nM
13 | Cn1cc(-c2ccc(C[C@H](NC(=O)c3c(Cl)cccc3Cl)C(=O)O)c3ncccc23)c(C(F)(F)F)n1 [Example 17, (S)-2-(2,6-dichlorobenzamido)-3-(5-(1-methyl-3-(trifluoromethyl)-1H-pyrazol-4-yl)quinolin-8-yl)propanoic acid] | 356 nM
14 | Cn1c(=O)c(-c2ccc(C[C@H](NC(=O)c3c(Cl)cccc3Cl)C(=O)O)c3ncccc23)c(C(F)(F)F)c2cc(Br)ccc21 (single isomer, unassigned) [Example 64] | 4.4 nM
15 | COc1cccc(OC)c1-c1ccc(CC(NC(=O)c2c(F)cc(NS(=O)(=O)c3ccc(-n4cncn4)cc3)cc2F)C(=O)O)c2cnccc12 (stereo not shown) [Example 163, 2-(4-((4-(1H-1,2,4-triazol-1-yl)phenyl)sulfonamido)-2,6-difluorobenzamido)-3-(5-(2,6-dimethoxyphenyl)isoquinolin-8-yl)propanoic acid] | 0.9 nM
16 | O=C(N[C@@H](Cc1ccc(-c2cccc3c2OCCC3)c2ccccc12)C(=O)O)c1c(Cl)cccc1Cl [Example 111, (S)-3-(4-(chroman-8-yl)naphthalen-1-yl)-2-(2,6-dichlorobenzamido) propanoic acid] | 76.6 nM
17 | Cc1nc(-c2ccc(C[C@H](NC(=O)c3c(F)cc(N4CCOC[C@@H]4C(F)(F)F)cc3F)C(=O)O)c3ccccc23)c(=O)n(C)c1C [Example 177] | 0.22 nM
18 | COc1cc(C)n(C)c(=O)c1-c1ccc(C[C@H](NC(=O)c2c(F)cc(N3CCOC[C@@H]3C(F)(F)F)cc2F)C(=O)O)c2ccccc12 (single isomer, unassigned) [Example 124] | 0.2 nM
19 | COc1cccc(OC)c1-c1ccc(C[C@H](NC(=O)c2c(F)cc(NS(=O)(=O)c3ccc(-c4ccnc(F)c4)cc3)cc2F)C(=O)O)c2ccccc12 [Example 103, (S)-2-(2,6-difluoro-4-((4-(2-fluoropyridin-4-yl)phenyl)sulfonamido)benzamido)-3-(4-(2,6-dimethoxyphenyl)naphthalen-1-yl)propanoic acid] | 1.9 nM
20 | Cn1c(=O)c(-c2ccc(C[C@H](NC(=O)c3c(Cl)cccc3Cl)C(=O)O)c3ccccc23)cc2ccccc21 [Example 108, (S)-2-(2,6-dichlorobenzamido)-3-(4-(1-methyl-2-oxo-1,2-dihydroquinolin-3-yl)naphthalen-1-yl)propanoic acid] | 3.4 nM
21 | O=C(N[C@@H](Cc1ccc(-c2c(Cl)cccc2C(F)(F)F)c2cccnc12)C(=O)O)c1c(Cl)cccc1Cl [Example 44, (2S)-3-(5-(2-chloro-6-(trifluoromethyl)phenyl)quinolin-8-yl)-2-(2,6-dichlorobenzamido)propanoic acid] | 538 nM
22 | CC[C@@H](Nc1cc(F)c(C(=O)N[C@@H](Cc2ccc(-c3c(C)cc(C)n(C)c3=O)c3ccccc23)C(=O)O)c(F)c1)C(F)(F)F (single isomer, unassigned) [Example 133] | 0.5 nM
